Results published in patent publication US8455448B2, “Myostatin isoform” (Myostin Therapeutics Pty Ltd, priority 2004, dated 2013).
“Also recorded” adds a separate entry of the source.

B1: roMSV65: 65 amino acid C-terminal peptide of ovine MSV (SEQ ID NO: 49) expressed as recombinant protein in E. coli (protein)
chain: VHFYTPPYGQWIFHKERKIIFLEVYIQFCSILGEAVFKRQSKSIHFCQNFKIIACLCNTAAFRMK
modifications: Ovis aries

Key:
murine C2C12 myoblasts = experiment: Proliferation assay of C2C12 murine myoblasts (methylene blue, absorbance 655 nm); assay type: cell-based
Description: (§1) Myoblasts were seeded in 96-well tissue culture plates (Nunc, Roskilde, Denmark) at a cell density of 1000 cells per well in 200 μl of Dulbecco's modified Eagle's medium (DMEM, Invitrogen, California) supplemented with foetal bovine serum (FBS, 10% v/v, Invitrogen), penicillin (1×10^5 IU/l, Sigma, St Louis, Mo., USA) and streptomycin (100 mg/l, Sigma) buffered with NaHCO3 containing phenol red (7.22 nmol/l) as a pH indicator, and incubated overnight at 37° C. with 5% CO2. Medium was replaced with DMEM 10% FBS test medium containing 0, 0.001, 0.003, 0.01, 0.03, 0.1, 0.3, 1, 3 or 10 μg/ml oMSV65 in a semi-random arrangement of eight replicates (n=8) for each test medium. Plates were incubated at 37° C. with 5% CO2 for 72 hours, and then the medium was removed. The wells were washed with 200 μl of phosphate buffered saline (PBS, Oxoid, UK) and fixed with 100 μl of 10% formaldehyde, 0.9% NaCl solution for at least one hour. The fixative was then removed and 100 μl of 1% methylene blue stain in 0.01 M borate buffer (pH 8.5) was added to each well and incubated for 30 min at room temperature. Excess stain was removed by four sequential washes in borate buffer. Methylene blue was eluted from the cells by the addition of 100 μl 1:1 (v/v) ethanol/0.1 HCl. The plates were gently shaken and the absorbance was measured at 655 nm using a microplate photometer (FIGS. 3a and 3b).
as §1, with “0,” for “0, 0.001, 0.003,”, “0.01,” for “0.01, 0.03,”, “1” for “0.3, 1, 3”, “oMSV47” for “oMSV65”, “60” for “72”, “(FIG. 9).” for “(FIGS. 3a and 3b).”
Myoblasts were seeded in 96-well tissue culture plates (Nunc, Roskilde, Denmark) at a cell density of 1000 cells per well in […] of Dulbecco's modified Eagle's medium (DMEM, Invitrogen, California) supplemented with foetal bovine serum (FBS, 10% v/v, Invitrogen), penicillin (1×10^5 IU/l, Sigma, St Louis, Mo., USA) and streptomycin (100 mg/l, Sigma) buffered with NaHCO3 containing phenol red (7.22 nmol/l) as a pH indicator, and incubated overnight at 37° C. with 5% CO2. Medium was replaced with DMEM 2.5% FBS test medium containing 0, 0.01, 0.1, 1, 5 or 10 μg/ml of the respective peptides in a semi-random arrangement of eight replicates (n=8) for each test medium. Plates were incubated at 37° C. with 5% CO2 for 80 hours, and then the medium was removed. The wells were washed with 200 μl of phosphate buffered saline (PBS, Oxoid, UK) and fixed with 100 μl of 10% formaldehyde, 0.9% NaCl solution for at least one hour. The fixative was then removed and 100 μl of 1% methylene blue stain in 0.01 M borate buffer (pH 8.5) was added to each well and incubated for 30 min at room temperature. Excess stain was removed by four sequential washes in borate buffer. Methylene blue was eluted from the cells by the addition of 100 μl 1:1 (v/v) ethanol/0.1 HCl. […]

creatine kinase (CK) = experiment: Creatine kinase (CK-NAC) assay of blood samples of AH130 tumour rats; assay type: in vivo, rat; details: 1 μg/g bodymass s.c. twice daily for 6 d, day 6, FIG. 19
Description: The ascites hepatoma 130 (AH130) was obtained as a gift from Dr Vicki Baracos (University of Alberta, Edmonton, Alberta, Canada) and stored in cryovials in liquid nitrogen in a solution of 50% DMSO and 10% BSA. An aliquot was retrieved and thawed and 1 ml was injected i.p. into each of three donor rats and allowed to grow for seven days. The rats were killed by CO2 asphyxiation followed by cervical dislocation. The ascites was harvested and 100 μl was injected i.p. into each of 14 recipient male rats (280±6 g). An equal volume of saline was injected i.p. into seven control rats. Of the 14 rats inoculated with the AH130 tumour, seven were injected s.c. twice daily with roMSV47 at a dose of 1 μg/g body mass diluted in sterile saline to a volume of 1 ml. […] The volume of ascites in the peritoneal cavity was removed with a syringe and the volume recorded. Six muscles in the right hind limb (biceps femoris, gastrocnemius, soleus, plantaris, tibialis anterior and quadriceps femoris) were excised and their mass recorded.
CK-NAC was assayed in a commercial kit (Randox laboratories Ltd, UK). Reaction volumes were scaled down proportionately so that the assays could be performed in 96-well microtitre plates with samples assayed in triplicate (CK-NAC) and read as a change in U/L per min as per manufacturer's instructions.

[1] = roMSV47 1-10,000 ng/ml, 60 h, FIG. 10

Row | Molecule | proliferation of murine C2C12 myoblasts (murine C2C12 myoblasts; 0-10 μg/ml, DMEM 2.5% FBS, 80 h, FIG. 12A and FIG. 17) | C2C12 myoblast proliferation (murine C2C12 myoblasts; [1]) | concentration of maximum proliferation enhancing activity (murine C2C12 myoblasts; [1]) | increase in myoblast proliferation (murine C2C12 myoblasts; roMSV47, 60 h, FIG. 10) | concentrations of creatine kinase (CK) (creatine kinase (CK)) | myoblast cell growth (proliferation) (murine C2C12 myoblasts; roMSV65 0 to 10 μg/ml, 72 h, FIG. 3A) | proliferation of murine C2C12 myoblasts (murine C2C12 myoblasts; roMSV65 without myostatin, 48 h, FIG. 9)
1 | roMSV47: 47 amino acid C-terminal mature ovine MSV fragment (SEQ ID NO: 50), recombinant from E. coli (IIFLEVYIQFCSILGEAVFKRQSKSIHFCQNFKIIACLCNTAAFRMK; Ovis aries) | stimulate myoblast proliferation; also recorded: stimulate C2C12 cell growth in a dose dependent manner | stimulates murine C2C12 myoblast proliferation | 0.1 to 0.5 µg/mL | more than 2 fold | partially restores concentrations of CK; also recorded: not as markedly reduced |  | 
2 | B1 |  |  |  |  |  | stimulate myoblast cell growth in a dose dependent manner | stimulated proliferation of murine myoblasts
